Structures can show the parent of a compound that is named as a salt.
Biological target: T1, human TGR5 (Homo sapiens, UniProt Q8TDU6)
T1 construct: expressed in transfected cells; host or cells: HEK293
T1 sequence (Q8TDU6 1-330): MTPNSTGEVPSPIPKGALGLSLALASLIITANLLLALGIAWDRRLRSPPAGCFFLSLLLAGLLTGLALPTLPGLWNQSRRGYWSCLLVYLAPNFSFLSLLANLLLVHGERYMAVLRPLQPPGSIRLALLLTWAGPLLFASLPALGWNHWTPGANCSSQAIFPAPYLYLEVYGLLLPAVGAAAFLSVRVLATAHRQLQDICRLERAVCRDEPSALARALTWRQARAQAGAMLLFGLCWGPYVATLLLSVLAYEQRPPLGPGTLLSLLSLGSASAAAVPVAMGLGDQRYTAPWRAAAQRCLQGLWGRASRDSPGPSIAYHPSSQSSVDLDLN
Experiment: Cell-based TGR5 assay (cAMP generation, HTRF)
Conditions: HEK293 cells stably transfected with human TGR5; cAMP by HTRF; 30 minutes at 37° C.; read-out: pEC50 Human TGR5 (converted)
In short: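 Read-out was HTRF detection of cAMP, converted to concentration via a standard curve and fitted (3-parameter logistic) for pEC50 and maximal response. Agonist stimulation used HEK293 cells stably transfected with human TGR5, incubated 30 min at 37° C in IBMX-containing buffer at 0.05 nM to 10 μM compound.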

| EC50 [nM] | Compound |
| --- | --- |
| < 100 | O=C(NCCCCCc1cc(Cl)c(CNC2(c3cnccc3-c3ccccc3OC3CC3)CC2)cc1Cl)NC[C@H](O)[C@@H](O)[C@H](O)[C@H](O)CO [Compound I-60, 1-(5-[2,5-dichloro-4-[([1-[4-(2-cyclopropoxyphenyl)pyridin-3-yl]cyclopropyl]amino)methyl]phenyl]pentyl)-3-[(2S,3R,4R,5R)-2,3,4,5,6-pentahydroxyhexyl]urea hydrochloride] |
| < 100 | CC(CCCC(=O)N1CCN(CC(=O)NC[C@H](O)[C@@H](O)[C@H](O)[C@H](O)CO)CC1)c1ccc(Cl)c(CNC2(c3cnccc3-c3ccccc3OC3CC3)CC2)c1 (stereo partly drawn) [Compound I-321, 2-[4-(5-{4-chloro-3-[({1-[4-(2-cyclopropoxyphenyl)pyridin-3-yl]cyclopropyl}amino)methyl]phenyl}hexanoyl)piperazin-1-yl]-N-[(2S,3R,4R,5R)-2,3,4,5,6-pentahydroxyhexyl]acetamide] |
| < 100 | CC(CCCN(C(=O)[C@@H](O)[C@@H](O)[C@H](O)[C@@H](O)CO)C1CCS(=O)(=O)CC1)c1ccc(Cl)c(CNC2(c3cnccc3-c3ccccc3OC3CC3)CC2)c1 (stereo partly drawn) [Compound I-295, (2S,3S,4R,5S)-N-(4-{4-chloro-3-[({1-[4-(2-cyclopropoxyphenyl)pyridin-3-yl]cyclopropyl}amino)methyl]phenyl}pentyl)-N-(1,1-dioxo-1λ^6-thian-4-yl)-2,3,4,5,6-pentahydroxyhexanamide] |
| < 100 | O=C(NCCOCCS(=O)(=O)c1ccc(Cl)c(COC2(c3cnccc3-c3ccccc3OC3CC3)CC2)c1)N[C@@H](CO)[C@@H](O)[C@H](O)[C@H](O)CO [Compound I-641, 1-(2-{2-[4-chloro-3-({1-[4-(2-cyclopropoxyphenyl)pyridin-3-yl]cyclopropoxy}methyl)benzenesulfonyl]ethoxy}ethyl)-3-[(2S,3R,4S,5R)-1,3,4,5,6-pentahydroxyhexan-2-yl]urea] |
| < 100 | CC(=O)NCCCN(CCCSc1ccc(Cl)c(COC2(c3cnccc3-c3ccccc3OC3CC3)CC2)c1)C(=O)[C@@H](O)[C@@H](O)[C@H](O)[C@@H](O)CO [Compound I-594, (2S,3S,4R,5S)-N-(3-{[4-chloro-3-({1-[4-(2-cyclopropoxyphenyl)pyridin-3-yl]cyclopropoxy}methyl)phenyl]sulfanyl}propyl)-N-(3-acetamidopropyl)-2,3,4,5,6-pentahydroxyhexanamide] |
| < 100 | CS(=O)(=O)CCN(CCCCCc1cc(Cl)c(COC2(c3cnccc3-c3ccccc3OC3CC3)CC2)cc1Cl)C(=O)[C@@H](O)[C@@H](O)[C@H](O)[C@@H](O)CO (stereo in doubt) [Compound I-226, (2S,3S,4R,5S)-N-{5-[2,5-dichloro-4-({1-[4-(2-cyclopropoxyphenyl)pyridin-3-yl]cyclopropoxy}methyl)phenyl]pentyl}-2,3,4,5,6-pentahydroxy-N-(2-methanesulfonylethyl)hexanamide] |
| 126 to 1000 | O=C(NC[C@H](O)[C@@H](O)[C@H](O)[C@H](O)CO)NC1CC2(CCN(S(=O)(=O)c3ccc(Cl)c(COC4(c5cnccc5-c5ccccc5OC5CC5)CC4)c3)CC2)C1 [Compound I-428, 1-{7-[4-chloro-3-({1-[4-(2-cyclopropoxyphenyl)pyridin-3-yl]cyclopropoxy}methyl)benzenesulfonyl]-7-azaspiro[3.5]nonan-2-yl}-3-[(2S,3R,4R,5R)-2,3,4,5,6-pentahydroxyhexyl]urea] |
| < 100 | Cc1ccc(C(C)CCCC(=O)N(CCO)C[C@H](O)[C@@H](O)[C@H](O)[C@H](O)CO)cc1CNC1(c2cnccc2-c2ccccc2OC2CC2)CC1 (stereo partly drawn) [Compound I-355, 5-{3-[({1-[4-(2-cyclopropoxyphenyl)pyridin-3-yl]cyclopropyl}amino)methyl]-4-methylphenyl}-N-(2-hydroxyethyl)-N-[(2S,3R,4R,5R)-2,3,4,5,6-pentahydroxyhexyl]hexanamide] |
| 126 to 1000 | COCCNC(=O)N(CCCCc1cc(Cl)c(COC2(c3cnccc3-c3ccccc3OC3CC3)CC2)cc1Cl)C[C@H](O)[C@@H](O)[C@H](O)[C@H](O)CO [Compound I-76, 1-{4-[2,5-dichloro-4-({1-[4-(2-cyclopropoxyphenyl)pyridin-3-yl]cyclopropoxy}methyl)phenyl]butyl}-3-(2-methoxyethyl)-1-[(2S,3R,4R,5R)-2,3,4,5,6-pentahydroxyhexyl]urea] |
| 126 to 1000 | CN(C)CCN(C[C@H](O)[C@@H](O)[C@H](O)[C@H](O)CO)C(=O)CCCCc1cc(Cl)c(COC2(c3cnccc3-c3ccccc3OC3CC3)CC2)cc1Cl [Compound I-207, 5-[2,5-dichloro-4-({1-[4-(2-cyclopropoxyphenyl)pyridin-3-yl]cyclopropoxy}methyl)phenyl)-N-[2-(dimethylamino)ethyl]-N-[(2S,3R,4R,5R)-2,3,4,5,6-pentahydroxyhexyl]pentanamide] |
| 126 to 1000 | O=C(CCCCc1cc(Cl)c(CNC2(c3cnccc3-c3ccccc3OC3CC3)CC2)cc1Cl)NC[C@H](O)[C@@H](O)[C@H](O)[C@H](O)CO [Compound I-62, 5-[2,5-dichloro-4-[([1-[4-(2-cyclopropoxyphenyl)pyridin-3-yl]cyclopropyl]amino)methyl]phenyl]-N-[(2S,3R,4R,5R)-2,3,4,5,6-pentahydroxyhexyl]pentanamide] |
| < 100 | N[C@@H]1[C@@H](O)[C@@H](O[C@@H]2[C@@H](O)[C@H](O[C@H]3O[C@H](CNC(=O)CCCCc4cc(Cl)c(COC5(c6cnccc6-c6ccccc6OC6CC6)CC5)cc4Cl)[C@@H](O)[C@H](O)[C@H]3O)[C@@H](N)C[C@H]2N)O[C@H](CO)[C@H]1O (stereo in doubt) [Compound I-181, N-{[(2R,3S,4S,5R,6R)-6-{[(1R,2R,3S,4R,6S)-4,6-diamino-3-{[(2S,3R,4S,5S,6R)-4-amino-3,5-dihydroxy-6-(hydroxymethyl)oxan-2-yl]oxy}-2-hydroxycyclohexyl]oxy}-3,4,5-trihydroxyoxan-2-yl]methyl}-5-[2,5-dichloro-4-({1-[4-(2-cyclopropoxyphenyl)pyridin-3-yl]cyclopropoxy}methyl)phenyl]pentanamide] |
| 126 to 1000 | COc1cc(C)ccc1-c1ccncc1C1(OCc2cc(Cl)ccc2Cl)CC1 [Compound I-774, 3-(1-((2,5-dichlorobenzyl)oxy)cyclopropyl)-4-(2-methoxy-4-methylphenyl)pyridine] |
| < 100 | O=C(NCCC1CCN(S(=O)(=O)c2ccc(Cl)c(COC3(c4cnccc4-c4ccccc4OC4CC4)CC3)c2)CC1)NC[C@H](O)[C@@H](O)[C@H](O)[C@H](O)CO [Compound I-417, 1-(2-{1-[4-chloro-3-({1-[4-(2-cyclopropoxyphenyl)pyridin-3-yl]cyclopropoxy}methyl)benzenesulfonyl]piperidin-4-yl}ethyl)-3-[(2S,3R,4R,5R)-2,3,4,5,6-pentahydroxyhexyl]urea] |
| 126 to 1000 | O=C([C@@H](O)[C@@H](O)[C@H](O)[C@@H](O)CO)N(CCCCSc1ccc(Cl)c(CNC2(c3cnccc3-c3ccccc3OC3CC3)CC2)c1)CCN1CCS(=O)(=O)CC1 [Compound I-557, (2S,3S,4R,5S)-N-[4-({4-chloro-3-[({1-[4-(2-cyclopropoxyphenyl)pyridin-3-yl]cyclopropyl}amino)methyl]phenyl}sulfanyl)butyl]-N-[2-(1,1-dioxo-1λ^6,4-thiomorpholin-4-yl)ethyl]-2,3,4,5,6-pentahydroxyhexanamide] |
| 126 to 1000 | CN(C[C@H](O)[C@@H](O)[C@H](O)[C@H](O)CO)C(=O)CCC[S+]([O-])c1ccc(Cl)c(CNC2(c3cnccc3-c3ccccc3OC3CC3)CC2)c1 (stereo partly drawn) [Compound I-647, 4-{4-chloro-3-[({1-[4-(2-cyclopropoxyphenyl)pyridin-3-yl]cyclopropyl}amino)methyl]benzenesulfinyl}-N-methyl-N-[(2S,3R,4R,5R)-2,3,4,5,6-pentahydroxyhexyl]butanamide] |
| < 100 | O=C(NCC1CCN(S(=O)(=O)c2ccc(Cl)c(COC3(c4cnccc4-c4ccccc4OC4CC4)CC3)c2)CC1)NC[C@H](O)[C@@H](O)[C@H](O)[C@H](O)CO [Compound I-424, 1-({1-[4-chloro-3-({1-[4-(2-cyclopropoxyphenyl)pyridin-3-yl]cyclopropoxy}methyl)benzenesulfonyl]piperidin-4-yl}methyl)-3-[(2S,3R,4R,5R)-2,3,4,5,6-pentahydroxyhexyl]urea] |
| < 100 | O=C(NCCCCCSc1ccc(Cl)c(COC2(c3cnccc3-c3ccccc3OC3CC3)CC2)c1)NCCCCNC(=O)NC[C@H](O)[C@@H](O)[C@H](O)[C@H](O)CO [Compound I-627] |
| < 100 | CC(C)N(CCCCNC(=O)N[C@@H](CO)[C@@H](O)[C@H](O)[C@H](O)CO)S(=O)(=O)c1ccc(Cl)c(CNC(C)(C)c2cnccc2-c2ccccc2OC2CC2)c1 [Compound I-754, 4-chloro-3-(((2-(4-(2-cyclopropoxyphenyl)pyridin-3-yl)propan-2-yl)amino)methyl)-N-isopropyl-N-(4-(3-((2S,3R,4S,5R)-1,3,4,5,6-pentahydroxyhexan-2-yl)ureido)butyl) benzenesulfonamide] |

| Compound | EC50 [nM] |
| --- | --- |
| CC(C)N(CCCCNC(=O)NC[C@H](O)[C@@H](O)[C@H](O)[C@H](O)CO)S(=O)(=O)c1ccc(Cl)c(COC2(c3cnccc3-c3ccccc3OC3CC3)CCC2)c1 [Compound I-747, 4-chloro-3-((1-(4-(2-cyclopropoxyphenyl)pyridin-3-yl)cyclobutoxy)methyl)-N-isopropyl-N-(4-(3-((2S,3R,4R,5R)-2,3,4,5,6-pentahydroxyhexyl)ureido)butyl)benzenesulfonamide] | < 100 |

Reference: US12084472B2 (Ardelyx, Inc., priority 2015, dated 2024)
